Literature values as cited in patent publication US6872408B2, “Method of treating bipolar disorders using deuterium-substituted carbonate” (priority 2001, dated 2005).

Experiments:
[1] = tested on: patients; settings: patients treated for mania
[2] = tested on: deer mice; settings: increasing ratio of D2O to H2O in drinking water
[3] = tested on: mouse
[4] = tested on: mice
[5] = tested on: biological clock; settings: in vivo
[6] = tested on: patients with bipolar disorder

## CCCC(CCC)C(=O)O [DEPAKOTE, valproic acid]
[1]
  side effect: frequently causes blood dyscrasias

## [2H]O[2H] [Deuterium oxide]
[2]
  effect of D2O on the biological clock: dose dependent and reversible
[3]
  spontaneous locomotor activity: suppressed
[4]
  effect on the period and entrainment of the light-dark (LD) cycle: chronomutagenic effect
[5]
  effect on length of the biological clock: lengthen the biological clock

## CCO [ethanol]
[5]
  effect on length of the biological clock: lengthen the biological clock

## [Li] [lithium]
[6]; patients with bipolar disorder
  time for effects to take affect: up to 2 weeks
[6]; patients with bipolar disorder prescribed lithium
  patients receiving beneficial effects: up to 80%

## CC(C)[C@@H]1NC(=O)[C@H](C)OC(=O)[C@@H](C(C)C)NC(=O)[C@@H](C(C)C)OC(=O)[C@H](C(C)C)NC(=O)[C@H](C)OC(=O)[C@@H](C(C)C)NC(=O)[C@@H](C(C)C)OC(=O)[C@H](C(C)C)NC(=O)[C@H](C)OC(=O)[C@@H](C(C)C)NC(=O)[C@@H](C(C)C)OC1=O [valinomycin]
[5]
  effect on length of the biological clock: lengthen the biological clock

## lithium salts
[5]
  effect on length of the biological clock: lengthen the biological clock
